{"source": "patent US6855505B2", "about": "“Method for quantifying TGF-β” (Renovo Limited, priority 1998, dated 2005)", "key": {"[1]": {"tested_on": "total TGF-β", "assay": "Total TGF-β (active plus latent) in heat-activated wound cryosections, PAI/L assay", "assay_type": "in vivo, rat", "details": "for level of total TGF-β in treated wounds compared with control wounds: M6P 100 mM, 100 μl/wound/day; for level of total TGF-β in treated wounds compared to controls: 100 μM kistrin", "source_text": "(§1) Adult male Sprague-Dawley rats (Charles River UK Ltd, Kent, UK) weighing 225-250 g were anaesthetised by inhalation of halothane, nitrous oxide, and oxygen. The back of the rats was shaved, and four full-thickness linear incisions of 1 cm length, including the panniculus carnosus, were made on the back of the animals using a scalpel as described in Shah et al., “Control of scarring in adult wounds by neutralising antibody to transforming growth factor β, Lancet. 339: 213-214, 1992. The wounds were left unsutured to heal by secondary intention. The animals were allowed to recover, housed separately, and fed ad libitum until the wounds were harvested. The animals were killed by chloroform overdose at 1 hour, 6 hour, or 1, 2, 3, 4, 5, 7, 10 and 14 days post-wounding. The wounds were harvested and processed as described below. All animal experiments were carried out under appropriate licences according to UK Home Office regulations.\n(§2) The wound area was swabbed with 70% ethanol. The wounds were carefully dissected from surrounding tissue and subsequently embedded in 8% sterile methyl cellulose (Sigma, Dorset, UK) and snap frozen in liquid nitrogen. Four wounds from each animal were embedded in one block of methyl cellulose. Four tissue samples of equivalent size representing surrounding tissue adjacent to the wound were also excised and processed as described above. Normal skin from the back of non-wounded rats was used as a control. The embedded tissue samples were stored at −80° C. for a maximum of 3 months. Thick cryosections (20 μm) were cut and placed on sterilised 13-mm round coverslips and analysed in duplicate. The coverslips, each carrying 4 cryosections of the wound, were placed into a 24-well cell culture plate and temporarily stored at −20° C. until transferred onto mink lung epithelial cells (MLECs).\nIn order to measure total TGF-β (active plus latent) in the wound tissue samples, the coverslips carrying the cryosections were submerged in 500 μl of DMEM-BSA medium in a sterile glass embryo dish (BDH, Merck, Leics., UK) and incubated for 20 minutes at 80° C. in order to heat activate latent TGF-β. Following heat activation, the coverslips were transferred, together with the medium, onto MLECs for TGF-β quantification in the PAI/L assay according to Example 1. Similar results were obtained in three separate experiments.\n(§3) 20 animals each received 4 wounds which were subsequently treated with M6P (100 mM, 100 μl/wound/day). Animals were killed at 1 and 6 hours and 1, 3, 5, 7, 10 and 14 days post wounding. The wounds were dissected and embedded in methyl cellulose, then snap frozen. The tissue samples were subsequently prepared for use in the modified PAI-1/L assay.\n(§4) Briefly, rat incisional wounds were treated with 100 μM kistrin, then prepared and assayed as described previously."}, "[2]": {"tested_on": "rat incisional wounds", "details": "application into rat dermal wounds; earlier studies; cited from earlier work"}, "[3]": {"tested_on": "active TGF-β", "assay": "Active TGF-β in wound cryosections, modified PAI/L assay", "assay_type": "in vivo, rat", "details": "for level of active TGF-β in treated wounds compared with PBS controls: M6P 100 mM, 100 μl/wound/day; for level of active TGF-β in treated wounds compared to controls: 100 μM kistrin", "source_text": "as §1, §2\nReferring to FIG. 1, the original PAI/L assay for the quantification of TGF-β in liquid samples was modified in order to measure active/latent TGF-β levels in a tissue section of a wound site to provide an indication of the levels at the wound site in vivo. As shown in FIG. 1A MLECs (10) were plated for 4 h into 24-well plates. one well (12) being represented in FIG. 1A (3×10^5/ml, 500 μl/well) in complete DMEM and incubated for 4 hours at 37° C. Then, serum-containing medium was replaced with 500 μl of DMEM containing 0.1% pyrogen-poor BSA (from Pierce, Rockford, Ill., USA), aprotinin (1 μg/ml) (from Sigma, Dorset, UK) penicillin (100 U/ml) and streptomyciln (100 μg/ml), designated DMEM-BSA medium (14). The coverslips (16) carrying cryosections (18) were placed upside down onto the MLECs (10) in the 24-well plates.\nThese serial dilutions were added to the MLECs (10) together with methyl-cellulose coated coverslips (16).\nBoth samples and TGF-β standards were incubated with the MLECs (10) overnight at 37° C. MLECs (10) were then washed with phosphate buffered saline (PBS) and lysed with 200 μl of luciferase cell lysis buffer (from Analytical Luminescence Laboratory, Ann Arbor, USA) for 20 minutes at room temperature. Forty-five microliters of the lysates was transferred in triplicate to a Microlite 96-well plate (Dynatech Laboratories Inc. Chantilly, Va., USA). Luciferase activity in the lysates was determined using an MLX Microtiter Plate Luminometer (Dynex Technologies, Chantilly, Va., USA).\nas §3\nBriefly, rat incisional wounds were treated with 1 mM monodansylcadaverine (MDC), a potent inhibitor of Transglutaminase activity. The wounds were prepared and assayed as described previously. […]"}, "[4]": {"tested_on": "rat incisional wounds", "assay": "Scarring in rat incisional wound model", "assay_type": "in vivo", "source_text": "as §1\nBriefly, rat incisional wounds were treated with 1 mM monodansylcadaverine (MDC), a potent inhibitor of Transglutaminase activity. The wounds were prepared and assayed as described previously.\nas §4"}, "[5]": {"tested_on": "latent TGF-β", "assay": "Latent TGF-β in wound sections", "assay_type": "in vivo, rat", "details": "100 μM kistrin; 1 hour post wounding", "description": "as §4"}, "[6]": {"details": "rat incisional wounds treated with 1 mM MDC"}}, "data": [{"compound": "O=C[C@@H](O)[C@@H](O)[C@H](O)[C@H](O)COP(=O)(O)O", "note": "[M6P, mannose-6-phosphate]", "values": [{"measurement": "level of total TGF-β in treated wounds compared with control wounds", "setting": "[1]; 6 hours post wounding", "value": "higher than controls"}, {"measurement": "level of total TGF-β in treated wounds compared with control wounds", "setting": "[1]; 5 days post wounding", "value": "higher than controls"}, {"measurement": "level of total TGF-β in treated wounds compared with control wounds", "setting": "[1]; 7 days post wounding", "value": "less than controls"}, {"measurement": "level of total TGF-β in treated wounds compared with control wounds", "setting": "[1]; 10 days post wounding", "value": "higher than controls"}, {"measurement": "quality of scarring", "setting": "[2]", "value": "improve the quality of scarring"}, {"measurement": "level of active TGF-β in treated wounds compared with PBS controls", "setting": "[3]; 1 hour post wounding", "value": "less"}, {"measurement": "level of active TGF-β in treated wounds compared with PBS controls", "setting": "[3]; 6 hours post wounding", "value": "less"}, {"measurement": "level of active TGF-β in treated wounds compared with PBS controls", "setting": "[3]; 10 days post wounding", "value": "more active TGF-β than controls"}, {"measurement": "level of active TGF-β in treated wounds compared with PBS controls", "setting": "[3]; after 6 hours until 10 days post wounding", "value": "comparable"}, {"measurement": "reduction of levels of active TGF-β in vivo (overall conclusion)", "setting": "[3]; M6P treated rat wounds, early stages of wound repair", "value": "effective in reducing the levels of active TGF-β in vivo"}, {"measurement": "scarring", "setting": "[4]; local administration of M6P, rat incisional wound model, previously demonstrated by the applicant", "value": "significantly reduces scarring"}]}, {"compound": "CN(C)c1cccc2c(S(=O)(=O)NCCCCCN)cccc12", "note": "[MDC, monodansylcadaverine]", "values": [{"measurement": "early TGF-β levels", "setting": "[3]; [6]", "value": "reduces early TGF-β levels"}, {"measurement": "TGF-β activation in vivo", "setting": "[3]; rat incisional wounds treated with 1 mM MDC, FIG. 8", "value": "inhibits TGF-β activation in vivo"}, {"measurement": "scarring", "setting": "[4]; [6]", "value": "improves scarring"}]}, {"compound": "kistrin", "values": [{"measurement": "level of total TGF-β in treated wounds compared to controls", "setting": "[1]; 1 hour post wounding", "value": "increased"}, {"measurement": "level of total TGF-β in treated wounds compared to controls", "setting": "[1]; 5 days post wounding", "value": "no differences"}, {"measurement": "level of active TGF-β in treated wounds compared to controls", "setting": "[3]; 1 hour post wounding", "value": "increased"}, {"measurement": "level of active TGF-β in treated wounds compared to controls", "setting": "[3]; 5 days post wounding", "value": "no differences"}, {"measurement": "antiscarring effect", "setting": "[4]; kistrin treated rat incisional wounds", "value": "no antiscarring effect"}, {"measurement": "amount of latent TGF-β compared to controls", "setting": "[5]", "value": "no difference"}]}]}
